Experimental findings from patent US10709159B2, “Increasing the bioavailability of flavan-3-ols with carbohydrates with a low glycemic index” (NESTEC S.A., priority 2012, dated 2020) are described below.

Each structure is given as a SMILES string.

The data set deals with Caco-2 human epithelial colorectal adenocarcinoma cells. The experiment in a line: In vitro Caco-2 cell model, transport of (−)-epicatechin. The class given is in vitro ADME. Conditions: for concentration of (−)-epicatechin in the basal compartment in comparison to sucrose: 250 μM (−)-epicatechin plus carbohydrate 100 mg/ml on the apical side, 2 h incubation; for concentration of (−)-epicatechin in the basal compartment when in combination with carbohydrate: (−)-epicatechin in combination with selected low glycemic index carbohydrates. Here is the method: Caco-2 human epithelial colorectal adenocarcinoma cells were used to investigate the transport of (−)-epicatechin in vitro. Cells were grown in high glucose DMEM supplemented with 20% heat inactivated fetal bovine serum, non-essential amino acids and 2 mM L-glutamine, amphotericin B (1 μg/ml), penicillin (100 U/ml), and streptomycin (100 μg/ml) and maintained at 37° C. and 5% CO2. The medium was replaced every 2 days and the cells were reseeded every 7 days. Then, cells were seeded in 12-well transwell inserts at a density of 20,000 cells per cm^2 and the medium on both sides was replaced every 2 days. After 21 days, cells were already differentiated. On the experiment day, medium was removed and replaced by HBSS supplemented with 25 mM glucose, 10 mM HEPES and 1.8 mM CaCl2. […] Then, (−)-epicatechin (250 μM) alone or plus carbohydrates (5 to 100 mg/ml) were placed in the apical side of the cell monolayers and incubated for 2 h. All compounds were added to the exposure medium from stock solutions in DMSO. The concentration of DMSO at the apical side was kept at 0.05% in each experiment. (−)-Epicatechin was detected in the cell culture media using ultra-performance liquid chromatography using an Acquity UPLC HSS C18 2.1×100 mm, 1.8 μm column (Waters, Switzerland) equipped with HSS C18 VanGuard pre-column (Waters, Switzerland).
For orientation: Caco-2 monolayers are a common model of the intestinal barrier.

For the compound `OC[C@@H](O)[C@H](O)[C@@H](O)CO` [xylitol], the “concentration of (−)-epicatechin in the basal compartment in comparison to sucrose” value (from here on “concentration of (−)-epicatechin … to sucrose”) is listed as “significant higher concentration of (−)-epicatechin in the basal compartment” and the “concentration of (−)-epicatechin in the basal compartment when in combination with carbohydrate” value (“concentration … with carbohydrate” below) is listed as “significant increase in the concentration of (−)-epicatechin in the basal compartment”.
Turning to `OC[C@@H](O)[C@@H](O)[C@H](O)[C@@H](O)CO` [sorbitol, D-sorbitol], the “concentration of (−)-epicatechin … to sucrose” value was “significant higher concentration of (−)-epicatechin in the basal compartment” and the “concentration … with carbohydrate” value is “significant increase in the concentration of (−)-epicatechin in the basal compartment”.
Regarding `O=C[C@H](O)[C@@H](O)[C@@H](O)[C@H](O)CO` [galactose], the “concentration of (−)-epicatechin … to sucrose” value is listed as “significant higher concentration of (−)-epicatechin in the basal compartment” and the “concentration … with carbohydrate” value is “significant increase in the concentration of (−)-epicatechin in the basal compartment”.
